Values of other authors, collected in patent US20260199284A1, “SPECIFIC VASH COMPOUNDS (SVC) INHIBITORS FOR HEART DISEASES” (MT ACT, priority 2023, published 2026).

Tested on: VASH
Conditions: cited from earlier work

Structure (SMILES): CCOC(=O)[C@H]1O[C@@H]1C(=O)N[C@@H](Cc1ccc(O)cc1)C(=O)O [Epo-Y, epoxide-Y]
- more potent VASH inhibitor than PTL: > 10 fold
